Results reported in patent publication US20080269173A1, “Composition for Stimulating Growth of Dermal Papilla Cells and Promoting Hair Follicle Growth Comprising Vitamin C Derivatives” (Trichogene Inc., priority 2005, published 2008).

Assays:
human dermal fibroblast = settings: Hata et al., 1988; cited from earlier work
osteoblast = settings: Hata et al., 1988; cited from earlier work
[1] = aqueous solution, general culture conditions; cited from earlier work
[2] = system: human anagen hair follicle; experiment: In vitro growth of isolated human anagen hair follicles (organ culture, length measurement); assay type: cell-based; settings: 0.05 mM and 0.25 mM, 9 days, Williams E medium; P<0.05
Experimental: Biopsy samples were obtained from a […] region of scalp of a patient with androgenic alopecia during the hair transplantation operation with their approval in the Kyungpook National University hospital. The hair follicles were isolated and incubated according to the known method (Philpott et al., J Cell Sci. 97:463-471, 1990).
The anagen hair follicles were isolated from the scalp under a stereoscopic binocular microscope. Upper one third of the isolated anagen hair follicles were cut out, and lower two third of them were incubated at 37° C. in a Williams E medium (Sigma, USA) under a 5% CO2 atmosphere. The hair follicles were incubated for 9 days in a medium including Asc 2-P, and then their length was measured using a stereoscopic microscope.

dermal papilla cells [3] = experiment: Growth of cultured dermal papilla cells (MTT method); assay type: cell-based, human; settings: 0.25 mM, 5 days
Experimental: The dermal papilla was isolated from a bulb of the severed hair follicles under the binocular microscope, and then transferred into a tissue culture dish. The dermal papilla was cultured at 37° C. for 5 days under a 5% CO2 atmosphere in the DMEM medium supplemented with penicillin (100 U/ml), streptomycin (100 μg/ml) and 20% heat-inactivated fetal bovine serum (FBS, Hyclone, USA), and then subcultured in the same condition. The dermal papilla cells were kept in the DMEM including 10% FBS after the subculture. The secondary subcultured cells were used in the present invention.
The dermal papilla cells were incubated overnight at a density of 5,000 cells/well in a 96-well plate containing a DMEM medium supplemented with 10% FBS. The medium was then exchanged to the DMEMs including varied concentrations of Asc 2-P and incubated for 5 days, and then the cell number was measured using a MTT method.

dermal papilla cells [4] = experiment: RT-PCR gene expression (mRNA) in dermal papilla cells; assay type: cell-based, human; settings: 0.25 mM, 5 days
Experimental: The dermal papilla cells were incubated for 5 days in a medium including 0.25 mM Asc 2-P, and then their RNA was isolated using a TRIzol reagent (Gibco-BRL, Grand Island, N.Y.). cDNA was synthesized from the RNA using a cDNA synthesis kit containing superscript II reverse transcriptase and random hexamer (Gibco-BRL). The cDNA was amplified with sets of gene-specific primers (Table 1).
Gene expression levels of IGF-1 (insulin like growth factor 1), HGF (hepatocyte growth factor), VEGF (vascular endothelial growth factor), KGF (keratinocyte growth factor), collagen I, collagen III, versican and alkaline phosphatase (ALP) were analyzed in the present invention.

[5] = system: versican in the hair follicle; experiment: Immunostaining of versican in hair follicle; assay type: cell-based, human; settings: 0.1 mM and 1 mM, 5 days
Experimental: The hair follicles were incubated for 5 days in the media treated with 0.1 mM and 1 mM Asc 2-P, and then their immunostaining experiments were conducted against versican.

| Structure (SMILES) | growth of human dermal fibroblast (human dermal fibroblast) | growth of osteoblast (osteoblast) | stability [1] | growth (length) of hair follicle [2] | growth of dermal papilla cells (cell number, MTT) (dermal papilla cells [3]; 0.05 mM, 1 mM and 5 mM, P<0.05) | growth of dermal papilla cells relative to the control group (dermal papilla cells [3]; MTT) [times] | HGF mRNA (dermal papilla cells [4]) | IGF-1 mRNA (dermal papilla cells [4]) | KGF mRNA (dermal papilla cells [4]) | VEGF mRNA (dermal papilla cells [4]) | alkaline phosphatase (ALP) mRNA (dermal papilla cells [4]) | collagen I mRNA (dermal papilla cells [4]) | collagen III mRNA (dermal papilla cells [4]) | versican mRNA (dermal papilla cells [4]) | expression of versican in the hair follicle (immunostaining) [5] |
| --- | --- | --- | --- | --- | --- | --- | --- | --- | --- | --- | --- | --- | --- | --- | --- |
| O=C1O[C@H]([C@@H](O)CO)C(O)=C1O [vitamin C, L-ascorbic acid] | stimulates growth | stimulates growth | rapidly oxidized and degraded | – | – | – | – | – | – | – | – | – | – | – | – |
| O=C1O[C@H]([C@@H](O)CO)C(O)=C1OP(=O)(O)O [Asc 2-P, L-ascorbic acid-2-phosphate magnesium] | stimulates growth | stimulates growth | more stable than the vitamin C | significantly grown | significantly stimulated growth | 2.4 | no effect | increased | no effect | no effect | increased | no effect | no effect | increased | increased |
